ChEMBL document CHEMBL4229379, “Synthesis and structure-activity relationship of novel bisindole amidines active against MDR Gram-positive and Gram-negative bacteria” (Eur J Med Chem, 2018)
≈ marks a conversion by molar mass, not a printed value.

Legend:
Staphylococcus aureus [1] = assay: Antibacterial activity against methicillin-resistant Staphylococcus aureus ATCC 33591 after 18 hrs by CLSI broth microdilution method; type: functional; details: ATCC 33591, 18 h
Klebsiella pneumoniae [2] = assay: Antibacterial activity against extended-spectrum beta-lactamase deficient Klebsiella pneumoniae 12-4 after 18 hrs by CLSI broth microdilution method; type: functional; details: 12-4, 18 h
Staphylococcus aureus [3] = assay: Antibacterial activity against methicillin-sensitive Staphylococcus aureus 12-28 after 18 hrs by CLSI broth microdilution method; type: functional; details: 12-28, 18 h
Klebsiella pneumoniae [4] = assay: Antibacterial activity against extended-spectrum beta-lactamase harboring Klebsiella pneumoniae 12-8 after 18 hrs by CLSI broth microdilution method; type: functional; details: 12-8, 18 h
Enterococcus faecalis [5] = assay: Potency index, ratio of levofloxacin MIC to compound MIC for vancomycin-resistant Enterococcus faecalis 09-9; type: functional
Proteus vulgaris = assay: Antibacterial activity against Proteus vulgaris ATCC 29905 after 18 hrs by CLSI broth microdilution method; type: functional; details: ATCC 29905, 18 h
Enterococcus faecium [6] = assay: Antibacterial activity against vancomycin-resistant Enterococcus faecium 12-1 after 18 hrs by CLSI broth microdilution method; type: functional; details: 12-1, 18 h
Staphylococcus aureus [7] = assay: Potency index, ratio of levofloxacin MIC to compound MIC for methicillin-resistant Staphylococcus aureus ATCC 33591; type: functional
Klebsiella pneumoniae [8] = assay: Antibacterial activity against new delhi metallo-beta-lactamase-1 harboring Klebsiella pneumoniae ATCC BAA-2146 after 18 hrs by CLSI broth microdilution method; type: functional; details: ATCC BAA-2146, 18 h
Enterococcus faecalis [9] = assay: Antibacterial activity against vancomycin-resistant Enterococcus faecalis ATCC 51299 after 18 hrs by CLSI broth microdilution method; type: functional; details: ATCC 51299, 18 h
Escherichia coli [10] = assay: Antibacterial activity against extended-spectrum beta-lactamase harboring Escherichia coli 12-15 after 18 hrs by CLSI broth microdilution method; type: functional; details: 12-15, 18 h
Klebsiella aerogenes = assay: Antibacterial activity against Enterobacter aerogenes ATCC 13048 after 18 hrs by CLSI broth microdilution method; type: functional; details: ATCC 13048, 18 h
Enterococcus faecalis [11] = assay: Antibacterial activity against vancomycin-resistant Enterococcus faecalis 09-9 after 18 hrs by CLSI broth microdilution method; type: functional; details: 09-9, 18 h
[12] = test system: Acinetobacter calcoaceticus; assay: Antibacterial activity against Acinetobacter calcoaceticus ATCC 19606 after 18 hrs by CLSI broth microdilution method; type: functional; details: ATCC 19606, 18 h
Serratia marcescens = assay: Antibacterial activity against Serratia marcescens ATCC 21074 after 18 hrs by CLSI broth microdilution method; type: functional; details: ATCC 21074, 18 h
Escherichia coli [13] = assay: Antibacterial activity against extended-spectrum beta-lactamase deficient Escherichia coli ATCC 25922 after 18 hrs by CLSI broth microdilution method; type: functional; details: ATCC 25922, 18 h
Pseudomonas aeruginosa [14] = assay: Antibacterial activity against Pseudomonas aeruginosa 12-16 after 18 hrs by CLSI broth microdilution method; type: functional; details: 12-16, 18 h
Pseudomonas aeruginosa [15] = assay: Antibacterial activity against Pseudomonas aeruginosa ATCC 27853 after 18 hrs by CLSI broth microdilution method; type: functional; details: ATCC 27853, 18 h
[16] = test system: Staphylococcus epidermidis; assay: Antibacterial activity against methicillin-resistant Staphylococcus epidermidis 12-8 after 18 hrs by CLSI broth microdilution method; type: functional; details: 12-8, 18 h
Staphylococcus aureus [17] = assay: Antibacterial activity against methicillin-sensitive Staphylococcus aureus ATCC 29213 after 18 hrs by CLSI broth microdilution method; type: functional; details: ATCC 29213, 18 h
[18] = test system: Staphylococcus epidermidis; assay: Antibacterial activity against methicillin-sensitive Staphylococcus epidermidis 12-6 after 18 hrs by CLSI broth microdilution method; type: functional; details: 12-6, 18 h
Enterococcus faecalis [19] = assay: Antibacterial activity against vancomycin-sensitive Enterococcus faecalis 12-5 after 18 hrs by CLSI broth microdilution method; type: functional; details: 12-5, 18 h
Escherichia coli [20] = assay: Antibacterial activity against extended-spectrum beta-lactamase deficient Escherichia coli 12-14 after 18 hrs by CLSI broth microdilution method; type: functional; details: 12-14, 18 h
Proteus mirabilis = assay: Antibacterial activity against Proteus mirabilis 12-6 after 18 hrs by CLSI broth microdilution method; type: functional; details: 12-6, 18 h
Providencia rettgeri = assay: Antibacterial activity against Providencia rettgeri ATCC 31052 after 18 hrs by CLSI broth microdilution method; type: functional; details: ATCC 31052, 18 h
Klebsiella pneumoniae [21] = assay: Antibacterial activity against extended-spectrum beta-lactamase deficient Klebsiella pneumoniae 7 after 18 hrs by CLSI broth microdilution method; type: functional; details: Klebsiella pneumoniae, 7, 18 h
Enterococcus faecium [22] = assay: Potency index, ratio of levofloxacin MIC to compound MIC for vancomycin-resistant Enterococcus faecium ATCC 700221; type: functional
Enterococcus faecium [23] = assay: Antibacterial activity against vancomycin-resistant Enterococcus faecium ATCC 700221 after 18 hrs by CLSI broth microdilution method; type: functional; details: ATCC 700221, 18 h
[24] = test system: Stenotrophomonas maltophilia; assay: Antibacterial activity against Stenotrophomonas maltophilia ATCC 13636 after 18 hrs by CLSI broth microdilution method; type: functional; details: ATCC 13636, 18 h
Staphylococcus aureus [25] = assay: Antibacterial activity against methicillin-sensitive Staphylococcus aureus 15 after 18 hrs by CLSI broth microdilution method; type: functional; details: Staphylococcus aureus, 15, 18 h
Pseudomonas aeruginosa [26] = assay: Antibacterial activity against Pseudomonas aeruginosa PAO1 after 18 hrs by CLSI broth microdilution method; type: functional; details: PAO1, 18 h
Enterococcus faecalis [27] = assay: Antibacterial activity against vancomycin-sensitive Enterococcus faecalis ATCC 29212 after 18 hrs by CLSI broth microdilution method; type: functional; details: ATCC 29212, 18 h
Enterobacter cloacae = assay: Antibacterial activity against Enterobacter cloacae ATCC 43560 after 18 hrs by CLSI broth microdilution method; type: functional; details: ATCC 43560, 18 h
Enterococcus faecalis [28] = assay: Potency index, ratio of levofloxacin MIC to compound MIC for vancomycin-resistant Enterococcus faecalis ATCC 51299; type: functional
Staphylococcus aureus [29] = assay: Antibacterial activity against methicillin-resistant Staphylococcus aureus 12-33 after 18 hrs by CLSI broth microdilution method; type: functional; details: 12-33, 18 h
[30] = Cytotoxicity against HEK293T cells assessed as reduction in cell viability after 48 hrs by MTS assay; type: cell-based, HEK-293T; details: human
[31] = test system: Staphylococcus epidermidis; assay: Antibacterial activity against methicillin-sensitive Staphylococcus epidermidis ATCC 12228 after 18 hrs by CLSI broth microdilution method; type: functional; details: ATCC 12228, 18 h
Staphylococcus aureus [32] = assay: Potency index, ratio of levofloxacin MIC to compound MIC for methicillin-resistant Staphylococcus aureus 12-33; type: functional
Enterococcus faecium [33] = assay: Potency index, ratio of levofloxacin MIC to compound MIC for vancomycin-resistant Enterococcus faecium 12-1; type: functional
Enterococcus faecium [34] = assay: Antibacterial activity against vancomycin-sensitive Enterococcus faecium 12-3 after 18 hrs by CLSI broth microdilution method; type: functional; details: 12-3, 18 h
Citrobacter freundii = assay: Antibacterial activity against Citrobacter freundii ATCC 43864 after 18 hrs by CLSI broth microdilution method; type: functional; details: ATCC 43864, 18 h
Escherichia coli [35] = assay: Antibacterial activity against extended-spectrum beta-lactamase deficient Escherichia coli 1515 after 18 hrs by CLSI broth microdilution method; type: functional; details: Escherichia coli, 1515, 18 h
Klebsiella pneumoniae [36] = assay: Antibacterial activity against extended-spectrum beta-lactamase harboring Klebsiella pneumoniae ATCC 700603 after 18 hrs by CLSI broth microdilution method; type: functional; details: Klebsiella pneumoniae, 700603, 18 h

N=C(c1ccc2cc(-c3ccc(-c4cc5ccc(C(=N)N6CCC(N7CCCC7)CC6)cc5[nH]4)cc3)[nH]c2c1)N1CCC(N2CCCC2)CC1
MIC (Staphylococcus aureus [1]): 8 µg/mL (≈ 12 µM)
MIC (Klebsiella pneumoniae [2]): 16 µg/mL (≈ 24 µM)
MIC (Staphylococcus aureus [3]): 8 µg/mL (≈ 12 µM)
MIC (Klebsiella pneumoniae [4]): 16 µg/mL (≈ 24 µM)
Ratio (Enterococcus faecalis [5]): 4 - 512
MIC (Proteus vulgaris): 128 µg/mL (≈ 192 µM)
MIC (Enterococcus faecium [6]): 16 µg/mL (≈ 24 µM)
Ratio (Staphylococcus aureus [7]): 4 - 128
MIC (Klebsiella pneumoniae [8]): 32 µg/mL (≈ 48 µM)
MIC (Enterococcus faecalis [9]): 32 µg/mL (≈ 48 µM)
MIC (Escherichia coli [10]): 16 µg/mL (≈ 24 µM)
MIC (Klebsiella aerogenes): 16 µg/mL (≈ 24 µM)
MIC (Enterococcus faecalis [11]): 16 µg/mL (≈ 24 µM)
MIC [12]: > 128 µg/mL
MIC (Serratia marcescens): > 128 µg/mL
MIC (Escherichia coli [13]): 8 µg/mL (≈ 12 µM)
MIC (Pseudomonas aeruginosa [14]): 128 µg/mL (≈ 192 µM)
MIC (Pseudomonas aeruginosa [15]): 16 µg/mL (≈ 24 µM)
MIC [16]: 8 µg/mL (≈ 12 µM)
MIC (Staphylococcus aureus [17]): 8 µg/mL (≈ 12 µM)
MIC [18]: 8 µg/mL (≈ 12 µM)
MIC (Enterococcus faecalis [19]): 64 µg/mL (≈ 96 µM)
MIC (Escherichia coli [20]): 16 µg/mL (≈ 24 µM)
MIC (Proteus mirabilis): > 128 µg/mL
MIC (Providencia rettgeri): 128 µg/mL (≈ 192 µM)
MIC (Klebsiella pneumoniae [21]): 16 µg/mL (≈ 24 µM)
Ratio (Enterococcus faecium [22]): 4 - 512
MIC (Enterococcus faecium [23]): 16 µg/mL (≈ 24 µM)
MIC [24]: 128 µg/mL (≈ 192 µM)
MIC (Staphylococcus aureus [25]): 8 µg/mL (≈ 12 µM)
MIC (Pseudomonas aeruginosa [26]): 128 µg/mL (≈ 192 µM)
MIC (Enterococcus faecalis [27]): 16 µg/mL (≈ 24 µM)
MIC (Enterobacter cloacae): 16 µg/mL (≈ 24 µM)
Ratio (Enterococcus faecalis [28]): 4 - 512
MIC (Staphylococcus aureus [29]): 8 µg/mL (≈ 12 µM)
CC50 at 48 h [30]: 50 µg/mL (≈ 75 µM)
MIC [31]: 4 µg/mL (≈ 6 µM)
Ratio (Staphylococcus aureus [32]): 4 - 128
Ratio (Enterococcus faecium [33]): 4 - 512
MIC (Enterococcus faecium [34]): 16 µg/mL (≈ 24 µM)
MIC (Citrobacter freundii): 16 µg/mL (≈ 24 µM)
MIC (Escherichia coli [35]): 16 µg/mL (≈ 24 µM)
MIC (Klebsiella pneumoniae [36]): 64 µg/mL (≈ 96 µM)
